These results are taken from patent US10815222B2, “Compounds for use in the treatment of kinetoplastid infection” (C.N.C.C.S. S.c.a.r.l. COLLEZIONE NAZIONALE DEI COMPOSTI …, priority 2016, dated 2020).

As usually defined, the EC50 is the concentration needed to bring the measured effect to its halfway point.

The first assay relates to Bloodstream form of Trypanosoma brucei, strain Lister 427. The experiment in a line: Trypanosoma brucei growth inhibition assay (CellTiter-Glo, 24 h). As to conditions: T. Brucei Growth Inibition Assay, class symbols; read-out: T. Brucei GI EC50. Type of assay: cell-based. In short, it runs like this: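 Growth read-out was CellTiter-Glo luminescence after 24 h at 37 °C incubation of 1500 bloodstream-form Lister 427 trypanosomes per well with compound, in supplemented IMDM containing 10% FBS and at most 0.25% DMSO.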
A general note: ATP-based viability assays read luminescence as a measure of living cells.
In the case of `COc1ccc2nc(C(F)(F)F)n(CC(=O)N3CC[C@@H](N(C)CC4CCOC4)C[C@H]3c3ncc(-c4cc5ccccc5nc4OC)[nH]3)c2c1` (stereo partly drawn), the concentration for a half-maximal effect (EC50) was less than 100 nM.

Still in this assay, the particulars now being: Trypanosoma brucei; T. Brucei Growth Inibition Assay, class symbols; read-out: T. Brucei GI EC50.
For the compound `COc1nc2ccccc2cc1-c1cnc(C2CN(C(=O)C3CCN(C)CC3)CCN2C(=O)Cc2c(C)[nH]c3ccc(F)cc23)[nH]1` (stereo not drawn), the EC50 was 1010 to 5000 nM. Consider `O=C(Cc1c[nH]c2ccc(O)cc12)N1CCN(Cc2ccccc2)CC1c1ncc(-c2ccc3ccccc3c2)[nH]1` (stereo not drawn), for which the EC50 lay within 1010 to 5000 nM. In the case of `CCC(=O)CCCN1CCN(C(=O)Cn2ccnn2)C(c2ncc(-c3ccc4ccccc4c3)[nH]2)C1` (stereo not drawn), the EC50 was 1010 to 5000 nM. Consider `COc1ccc2nc(C)n(CC(=O)N3CCN(CC4COC4)C[C@H]3c3ncc(-c4cc5ccccc5nc4OC)[nH]3)c2c1` [(S)-2-(6-methoxy-2-methyl-1H-benzo[d]imidazol-1-yl)-1-(2-(5-(2-methoxyquinolin-3-yl)-1H-imidazol-2-yl)-4-(oxetan-3-ylmethyl)piperazin-1-yl)ethan-1-one], for which the EC50 is less than 100 nM. Still for that read-out and setting: for `COc1ccc2nc(C)n(CC(=O)N3CCN(Cc4nnc(C)o4)C[C@H]3c3ncc(-c4cc5ccccc5nc4OC)[nH]3)c2c1` the value was 100 to 500 nM. Regarding `COc1nc2ccccc2cc1-c1cnc(C2COCCN2C(=O)OCc2ccccc2)[nH]1` (stereo not drawn) [benzyl 3-(5-(2-methoxyquinolin-3-yl)-1H-imidazol-2-yl)morpholine-4-carboxylate], the EC50 is 1010 to 5000 nM. As for `COc1ccc2[nH]c(C)c(CC(=O)N3CCN(C(=O)OC(C)(C)C)CC3c3ncc(-c4cc5ccccc5nc4OC)[nH]3)c2c1` (stereo not drawn), the concentration giving a half-maximal response (EC50) lay within 100 to 500 nM. With `CN1CCN(C(=O)Cc2cn(C)c3ccccc23)C(c2ncc(-c3ccc4ccccc4c3)[nH]2)C1` (stereo not drawn), the EC50 lay within 1010 to 5000 nM. As for `CO[C@](C(=O)N1CCN(C)C[C@@H]1c1ncc(-c2ccc3ccccc3c2)[nH]1)(c1ccccc1)C(F)(F)F`, the concentration for a half-maximal effect (EC50) was 1010 to 5000 nM. Still for that read-out and setting: the same measure for `COc1ccc2nc(C(F)(F)F)n(CC(=O)N3CCN(C4CCOC4)CCC3c3ncc(-c4cc5ccccc5nc4OC)[nH]3)c2c1` (stereo not drawn) [2-(6-methoxy-2-(trifluoromethyl)-1H-benzo[d]imidazol-1-yl)-1-(7-(5-(2-methoxyquinolin-3-yl)-1H-imidazol-2-yl)-4-(tetrahydrofuran-3-yl)-1,4-diazepan-1-yl)ethan-1-one]: less than 100 nM; for `COc1nc2ccccc2cc1-c1cnc([C@@H]2CN(CC3CCOC3)CCN2C(=O)Cn2c(C(F)(F)F)nc3ccccc32)[nH]1` (stereo partly drawn) [1-((2S)-2-(5-(2-methoxyquinolin-3-yl)-1H-imidazol-2-yl)-4-((tetrahydrofuran-3-yl)methyl)piperazin-1-yl)-2-(2-(trifluoromethyl)-1H-benzo[d]imidazol-1-yl)ethan-1-one]: less than 100 nM.

Consider `COc1nc2ccccc2cc1-c1cnc([C@@H]2CN(Cc3ccon3)CCN2C(=O)Cn2c(C(F)(F)F)nc3ccccc32)[nH]1` [(S)-1-(4-(isoxazol-3-ylmethyl)-2-(5-(2-methoxyquinolin-3-yl)-1H-imidazol-2-yl)piperazin-1-yl)-2-(2-(trifluoromethyl)-1H-benzo[d]imidazol-1-yl)ethan-1-one], for which the EC50 is less than 100 nM. Regarding `COc1nc2ccccc2cc1-c1cnc(C2CN(C)CCN2C(=O)Cc2c[nH]c3ncccc23)[nH]1` (stereo not drawn), the EC50 lay in the range of 1010 to 5000 nM. Still for that read-out and setting: for `CCC(=O)CCCN1CCN(C(=O)C2CCN(C)CC2)C(c2ncc(-c3ccc4ccccc4c3)[nH]2)C1` (stereo not drawn) the value was 1010 to 5000 nM; for `COc1ccc2nc(C(F)(F)F)n(CC(=O)N3CCN(CCc4ccnn4C)CCC3c3ncc(-c4cc5ccccc5nc4OC)[nH]3)c2c1` (stereo not drawn) [2-(6-methoxy-2-(trifluoromethyl)-1H-benzo[d]imidazol-1-yl)-1-(7-(5-(2-methoxyquinolin-3-yl)-1H-imidazol-2-yl)-4-(2-(1-methyl-1H-pyrazol-5-yl)ethyl)-1,4-diazepan-1-yl)ethan-1-one], less than 100 nM. Still for that read-out and setting: the same measure for `COc1ccc2nc(C)n(CC(=O)N3CCN(CC4CCOC4)C[C@H]3c3ncc(/C=C/c4ccccc4)[nH]3)c2c1` (stereo partly drawn) [2-(6-methoxy-2-methyl-1H-benzo[d]imidazol-1-yl)-1-((2S)-2-(5-((E)-styryl)-1H-imidazol-2-yl)-4-((tetrahydrofuran-3-yl)methyl)piperazin-1-yl)ethan-1-one]: 1010 to 5000 nM; for `CN1CCN(C(=O)Cn2cc3ccccc3n2)C(c2ncc(-c3ccc4ccccc4c3)[nH]2)C1` (stereo not drawn): 1010 to 5000 nM; for `COc1nc2ccccc2cc1-c1cnc(C2CN(CC3CCOC3)CCN2C(=O)Cc2noc3ccccc23)[nH]1` (stereo not drawn): 510 to 1000 nM. As to `COc1ccccc1C(=O)N1CCN(C)CC1c1ncc(-c2ccc3ccccc3c2)[nH]1` (stereo not drawn), the EC50 was 1010 to 5000 nM. Still for that read-out and setting: for `COc1nc2ccccc2cc1-c1cnc(C2CNCCN2C(=O)Cc2ccccc2)[nH]1` (stereo not drawn) the value was 1010 to 5000 nM; for `COc1ccc2nc(C(F)(F)F)n(CC(=O)N3CCN(CC4CCN(C(C)=O)C4)C[C@H]3c3ncc(-c4cc5ccccc5nc4OC)[nH]3)c2c1` (stereo partly drawn) [1-((2S)-4-((1-acetylpyrrolidin-3-yl)methyl)-2-(5-(2-methoxyquinolin-3-yl)-1H-imidazol-2-yl)piperazin-1-yl)-2-(6-methoxy-2-(trifluoromethyl)-1H-benzo[d]imidazol-1-yl)ethan-1-one], less than 100 nM; for `COc1ccc2nc(C(F)(F)F)n(CC(=O)N3CCN(C4CCS(=O)(=O)CC4)CCC3c3ncc(-c4cc5ccccc5nc4OC)[nH]3)c2c1` (stereo not drawn) [1-(4-(1,1-dioxidotetrahydro-2H-thiopyran-4-yl)-7-(5-(2-methoxyquinolin-3-yl)-1H-imidazol-2-yl)-1,4-diazepan-1-yl)-2-(6-methoxy-2-(trifluoromethyl)-1H-benzo[d]imidazol-1-yl)ethan-1-one], less than 100 nM.

For the compound `O=C(Cc1n[nH]c2ccccc12)N1CCN(CC2CCOC2)CC1c1ncc(-c2ccc3ccccc3c2)[nH]1` (stereo not drawn), the EC50 was 1010 to 5000 nM.

Consider `COc1nc2ccccc2cc1-c1cnc(C2CNCCN2C(=O)Cn2c(C)nc3ccccc32)[nH]1` (stereo not drawn), for which the EC50 lay within 1010 to 5000 nM. For the compound `COc1nc2ccccc2cc1-c1cnc([C@@H]2CN(CC3CCOC3)CCN2C(=O)Cn2c(S(C)(=O)=O)nc3ccccc32)[nH]1` (stereo partly drawn), the concentration giving a half-maximal response (EC50) was in the range of 100 to 500 nM. As for `COc1ccc2nc(C(F)(F)F)n(CC(=O)N3CC[C@H](N(C)C)C[C@H]3c3ncc(-c4cc5ccccc5nc4OC)[nH]3)c2c1` [1-((2S,4S)-4-(dimethylamino)-2-(5-(2-methoxyquinolin-3-yl)-1H-imidazol-2-yl)piperidin-1-yl)-2-(6-methoxy-2-(trifluoromethyl)-1H-benzo[d]imidazol-1-yl)ethan-1-one], the concentration giving a half-maximal response (EC50) is less than 100 nM. On to `COc1ccc2nc(C)n(CC(=O)N3CCN(Cc4ccn(C)n4)CC[C@@H]3c3ncc(-c4cc5ccccc5nc4OC)[nH]3)c2c1` [(R)-2-(6-methoxy-2-methyl-1H-benzo[d]imidazol-1-yl)-1-(7-(5-(2-methoxyquinolin-3-yl)-1H-imidazol-2-yl)-4-((1-methyl-1H-pyrazol-3-yl)methyl)-1,4-diazepan-1-yl)ethan-1-one], for which the half-maximal effective concentration (EC50) was less than 100 nM. Turning to `COc1ccc2nc(C)n(CC(=O)N3CCN(Cc4cocn4)C[C@H]3c3ncc(-c4cc5ccccc5nc4OC)[nH]3)c2c1` [(S)-2-(6-methoxy-2-methyl-1H-benzo[d]imidazol-1-yl)-1-(2-(5-(2-methoxyquinolin-3-yl)-1H-imidazol-2-yl)-4-(oxazol-4-ylmethyl)piperazin-1-yl)ethan-1-one], the EC50 is less than 100 nM. Consider `COc1ccc2c(c1)[C@H](CC(=O)N1CCN(C)CC1c1ncc(-c3ccc4ccccc4c3)[nH]1)C(=O)N2` (stereo partly drawn), for which the 50% effective concentration (EC50) was 1010 to 5000 nM. As for `COc1ccc2nc(C(F)(F)F)n(CC(=O)N3CCN(Cc4ccnnc4)C[C@H]3c3ncc(-c4cc5ccccc5nc4OC)[nH]3)c2c1` [(S)-2-(6-methoxy-2-(trifluoromethyl)-1H-benzo[d]imidazol-1-yl)-1-(2-(5-(2-methoxyquinolin-3-yl)-1H-imidazol-2-yl)-4-(pyridazin-4-ylmethyl)piperazin-1-yl)ethan-1-one], the concentration giving a half-maximal response (EC50) was less than 100 nM. For the compound `COc1ccc2nc(C(F)(F)F)n(CC(=O)N3CCN(Cc4ccn(C)n4)CC[C@H]3c3ncc(-c4cc5ccccc5nc4OC)[nH]3)c2c1` [(S)-2-(6-methoxy-2-(trifluoromethyl)-1H-benzo[d]imidazol-1-yl)-1-(7-(5-(2-methoxyquinolin-3-yl)-1H-imidazol-2-yl)-4-((1-methyl-1H-pyrazol-3-yl)methyl)-1,4-diazepan-1-yl)ethan-1-one], the half-maximal effective concentration (EC50) is less than 100 nM. Same read-out and setting: for `COc1ccc2nc(C(F)(F)F)n(CC(=O)N3CCN(CC4CCOC4)C[C@H]3c3ncc(-c4cc5ccccc5nc4OC)[nH]3)c2c1` (stereo partly drawn) [2-(6-methoxy-2-(trifluoromethyl)-1H-benzo[d]imidazol-1-yl)-1-((2S)-2-(5-(2-methoxyquinolin-3-yl)-1H-imidazol-2-yl)-4-((tetrahydrofuran-3-yl)methyl)piperazin-1-yl)ethan-1-one] the value was less than 100 nM. Turning to `COc1nc2ccccc2cc1-c1cnc(C2CN(C3CCC3)CCN2C(=O)Cc2c(C)[nH]c3ccc(F)cc23)[nH]1` (stereo not drawn), the EC50 fell in the range of 100 to 500 nM.

Take `COc1ccc2[nH]c(C)c(CC(=O)N3CC(=O)N(C)CC3c3ncc(-c4ccc5ccccc5c4)[nH]3)c2c1` (stereo not drawn) [4-(2-(5-methoxy-2-methyl-1H-indol-3-yl)acetyl)-1-methyl-5-(5-(naphthalen-2-yl)-1H-imidazol-2-yl)piperazin-2-one]: the EC50 lay in the range of 510 to 1000 nM. For `COc1nc2ccccc2cc1-c1cnc(C2CS(=O)(=O)CCN2C(=O)Cn2c(C)nc3ccccc32)[nH]1` (stereo not drawn), the concentration for a half-maximal effect (EC50) lay in the range of 1010 to 5000 nM. `O=C(Cc1c[nH]c2ncccc12)N1CCOCC1c1ncc(-c2ccc3ccccc3c2)[nH]1` (stereo not drawn): the concentration giving a half-maximal response (EC50) fell in the range of 1010 to 5000 nM.

For the compound `COc1ccc2nc(C(F)(F)F)n(CC(=O)N3CC[C@H](NCc4ccccn4)C[C@H]3c3ncc(-c4cc5ccccc5nc4OC)[nH]3)c2c1` [2-(6-methoxy-2-(trifluoromethyl)-1H-benzo[d]imidazol-1-yl)-1-((2S,4S)-2-(5-(2-methoxyquinolin-3-yl)-1H-imidazol-2-yl)-4-((pyridin-2-ylmethyl)amino)piperidin-1-yl)ethan-1-one], the EC50 was less than 100 nM.

With `COc1nc2ccccc2cc1-c1cnc([C@@H]2CN(CC3CCOC3)CCN2C(=O)Cn2c(C(F)(F)F)nc3ncccc32)[nH]1` (stereo partly drawn), the EC50 fell in the range of 1010 to 5000 nM.
